pEC50: −log10 of the molar value. Starred links: 1 amine or outer side, 2 acyl side, 3 side chain; linkers in the order of their positions; H or OH if unused. Non-standard residues stand in square brackets, D forms with d. Residues, ends and D or L forms follow the SMILES beside them. Groups on a side chain read outwards from the residue. *: point of attachment. C20 diacid = O=C(O)CCCCCCCCCCCCCCCCCCC(=O)*; X2 = CC(C)(CC(N)=O)[C@H](N[*:1])C(=O)[*:2]; C18 diacid = O=C(O)CCCCCCCCCCCCCCCCC(=O)*; γGlu = O=C(O)[C@H](CCC(=O)[*:2])N[*:1]; X3 = O=C(CN(Cc1c[nH]cn1)[*:1])[*:2]; αMeF = C[C@](N)(Cc1ccccc1)C(=O)O; AEEA = NCCOCCOCC(=O)O; Aib = CC(C)(N)C(=O)O
Target: human GLP-1 receptor (hGLP-1R) (Homo sapiens, UniProt P43220)
Sequence (P43220 24-463): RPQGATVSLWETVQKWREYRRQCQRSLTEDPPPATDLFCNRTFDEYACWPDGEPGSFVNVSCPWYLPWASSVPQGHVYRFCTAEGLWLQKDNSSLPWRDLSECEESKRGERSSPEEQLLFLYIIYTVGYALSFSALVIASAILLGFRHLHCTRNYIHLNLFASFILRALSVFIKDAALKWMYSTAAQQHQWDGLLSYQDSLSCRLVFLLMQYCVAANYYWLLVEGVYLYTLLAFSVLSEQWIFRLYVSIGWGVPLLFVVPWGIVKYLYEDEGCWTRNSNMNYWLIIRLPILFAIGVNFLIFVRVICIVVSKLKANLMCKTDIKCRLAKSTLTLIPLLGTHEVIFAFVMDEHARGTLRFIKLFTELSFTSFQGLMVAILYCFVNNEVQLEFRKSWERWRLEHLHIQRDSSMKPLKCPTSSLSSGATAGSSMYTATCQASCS
Experiment: cAMP production (HTRF) in CHO cells expressing hGLP-1R
Format: cell-based
Parameters: expressed in transfected cells
Settings: for % Relative Potency Ratio: % GLP-1R activity relative to GLP-1 / % GlucR activity relative to glucagon
Protocol: Cells were re-suspended in assay buffer at a batch-dependent optimized concentration (typically hGLP-1R cells at 1×10^5 cells/mL, hGCGR cells at 2×10^5 cells/mL).
Cells were added to the assay plate using a multidrop dispenser and incubated at room temperature for 30 minutes before measuring the cAMP level using a cAMP dynamic 2 homogeneous time resolved Fluorescence (HTRF) kit (Cisbio Bioassays #62AM4PEJ) following the two-step protocol as per manufacturer's recommendations. In brief, anti-cAMP cryptate (donor fluorophore) and cAMP-d2 (acceptor fluorophore) were made up separately by diluting each 1 in 20 in conjugate and lysis buffer provided in the kit. Anti-CAMP cryptate was added to all wells of the assay plate, followed by cAMP-d2 added to all wells except non-specific binding (NSB) wells (to which conjugate and lysis buffer was added).
Data was transformed to % Delta F as described in the manufacturer's guidelines and analyzed by 4-parameter logistic fit to determine EC50 values.

CC[C@H](C)[C@H](NC(=O)[C@H](Cc1c[nH]c2ccccc12)NC(=O)[C@H](C)NC(=O)[C@@H](NC(=O)[C@](C)(Cc1ccccc1)NC(=O)[C@H](CC(=O)O)NC(=O)[C@H](CCCCNC(=O)COCCOCCNC(=O)COCCOCCNC(=O)CC[C@H](NC(=O)CCCCCCCCCCCCCCCCC(=O)O)C(=O)O)NC(=O)[C@H](C)NC(=O)[C@H](C)NC(=O)[C@H](CCCNC(=N)N)NC(=O)[C@H](CO)NC(=O)[C@H](CC(=O)O)NC(=O)[C@H](CC(C)C)NC(=O)[C@](C)(Cc1ccccc1)NC(=O)[C@H](CCCCN)NC(=O)[C@H](CO)NC(=O)[C@@H](NC(=O)[C@H](CC(=O)O)NC(=O)[C@H](CO)NC(=O)[C@@H](NC(=O)[C@](C)(Cc1ccccc1)NC(=O)[C@H](CO)NC(=O)CNC(=O)[C@H](Cc1c[nH]cn1)NC(=O)C(C)(C)NC(=O)[C@@H](N)Cc1c[nH]cn1)[C@@H](C)O)C(C)C)[C@@H](C)CC)C(=O)N[C@@H](C)C(=O)N[C@@H](CC(N)=O)C(=O)N[C@H](C(N)=O)[C@@H](C)O [Peptide 230] (H-H[Aib]HGS[αMeF]TSDVSK[αMeF]LDSRAAK([AEEA-AEEA-γGlu-C18 diacid])D[αMeF]IAWIANT-NH2)
% Relative Potency Ratio (Table 7): 0.4

CC[C@H](C)[C@H](NC(=O)C(C)(C)NC(=O)[C@H](CCC(N)=O)NC(=O)[C@@H](NC(=O)[C@](C)(Cc1ccccc1)NC(=O)[C@H](CC(=O)O)NC(=O)[C@H](CCCCNC(=O)COCCOCCNC(=O)COCCOCCNC(=O)CC[C@H](NC(=O)CCCCCCCCCCCCCCCCC(=O)O)C(=O)O)NC(=O)[C@H](C)NC(=O)[C@H](C)NC(=O)[C@H](CCCNC(=N)N)NC(=O)[C@H](CO)NC(=O)[C@H](CC(=O)O)NC(=O)[C@H](CC(C)C)NC(=O)[C@](C)(Cc1ccccc1)NC(=O)[C@H](CCCCN)NC(=O)[C@H](CO)NC(=O)[C@@H](NC(=O)[C@H](CC(=O)O)NC(=O)[C@H](CO)NC(=O)[C@@H](NC(=O)[C@](C)(Cc1ccccc1)NC(=O)[C@H](CO)NC(=O)CNC(=O)[C@@H](NC(=O)[C@H](CO)NC(=O)[C@@H](N)Cc1c[nH]cn1)C(C)(C)CC(N)=O)[C@@H](C)O)C(C)C)C(C)C)C(=O)N[C@@H](C)C(=O)N[C@@H](CC(N)=O)C(=O)N[C@H](C(N)=O)[C@@H](C)O [Peptide 324] (H-HS[X2]GS[αMeF]TSDVSK[αMeF]LDSRAAK([AEEA-AEEA-γGlu-C18 diacid])D[αMeF]VQ[Aib]IANT-NH2; N-terminus assumed)
% Relative Potency Ratio (Table 7): 2.9

CC[C@H](C)[C@H](NC(=O)[C@H](Cc1c[nH]c2ccccc12)NC(=O)[C@H](CCCCNC(=O)CC[C@H](NC(=O)CC[C@H](NC(=O)CCOCCOCCNC(=O)CC[C@H](NC(=O)CC[C@H](NC(=O)CCCCCCCCCCCCCCCCCCC(=O)O)C(=O)O)C(=O)O)C(=O)O)C(=O)O)NC(=O)[C@@H](NC(=O)[C@H](Cc1ccccc1)NC(=O)[C@H](CC(=O)O)NC(=O)[C@H](CCC(N)=O)NC(=O)[C@H](C)NC(=O)[C@H](C)NC(=O)[C@H](CCC(N)=O)NC(=O)[C@H](CO)NC(=O)[C@H](CC(=O)O)NC(=O)[C@H](CC(C)C)NC(=O)[C@](C)(Cc1ccccc1)NC(=O)[C@H](CCCCN)NC(=O)[C@H](CO)NC(=O)[C@@H](NC(=O)[C@H](CC(=O)O)NC(=O)[C@H](CO)NC(=O)[C@@H](NC(=O)[C@](C)(Cc1ccccc1)NC(=O)[C@H](CO)NC(=O)CNC(=O)[C@H](Cc1c[nH]cn1)NC(=O)C(C)(C)NC(=O)[C@@H](N)Cc1c[nH]cn1)[C@@H](C)O)C(C)C)C(C)C)C(=O)N[C@@H](C)C(=O)N[C@@H](CC(N)=O)C(=O)N[C@H](C(N)=O)[C@@H](C)O [Peptide 357]
% Relative Potency Ratio: 1.2

CC[C@H](C)[C@H](NC(=O)[C@H](Cc1c[nH]c2ccccc12)NC(=O)[C@H](CCCCNC(=O)COCCOCCNC(=O)COCCOCCNC(=O)CC[C@H](NC(=O)CC[C@H](NC(=O)CCCCCCCCCCCCCCCCCCC(=O)O)C(=O)O)C(=O)O)NC(=O)[C@@H](NC(=O)[C@H](Cc1ccccc1)NC(=O)[C@H](CC(=O)O)NC(=O)[C@H](CCC(N)=O)NC(=O)[C@H](C)NC(=O)[C@H](C)NC(=O)[C@H](CCCNC(=N)N)NC(=O)[C@H](CO)NC(=O)[C@H](CC(=O)O)NC(=O)[C@H](CC(C)C)NC(=O)[C@](C)(Cc1ccccc1)NC(=O)[C@H](CCCCN)NC(=O)[C@H](CO)NC(=O)[C@@H](NC(=O)[C@H](CC(=O)O)NC(=O)[C@H](CO)NC(=O)[C@@H](NC(=O)[C@](C)(Cc1ccccc1)NC(=O)[C@H](CO)NC(=O)CNC(=O)[C@H](Cc1c[nH]cn1)NC(=O)[C@H](CO)NC(=O)CNCc1c[nH]cn1)[C@@H](C)O)C(C)C)C(C)C)C(=O)N[C@@H](C)C(=O)N[C@@H](CC(N)=O)C(=O)N[C@H](C(N)=O)[C@@H](C)O [Peptide 380] (H-[X3]SHGS[αMeF]TSDVSK[αMeF]LDSRAAQDFVK([AEEA-AEEA-γGlu-γGlu-C20 diacid])WIANT-NH2)
% Relative Potency Ratio: 33.9

CCCCCCCCCCCCCCCCCC(=O)N[C@@H](CCC(=O)N[C@@H](CCC(=O)NCCOCCOCCC(=O)NCCOCCOCCC(=O)NCCCC[C@H](NC(=O)[C@H](CC(=O)O)NC(=O)[C@H](CO)NC(=O)[C@@H](NC(=O)[C@](C)(Cc1ccccc1)NC(=O)[C@H](CO)NC(=O)CNC(=O)[C@H](CCC(N)=O)NC(=O)[C@H](CO)NC(=O)[C@@H](N)Cc1c[nH]cn1)[C@@H](C)O)C(=O)N[C@@H](CO)C(=O)N[C@@H](CCCCN)C(=O)N[C@H](C(=O)N[C@@H](CC(C)C)C(=O)N[C@@H](CC(=O)O)C(=O)N[C@@H](CO)C(=O)N[C@H](C(=O)N[C@@H](C)C(=O)N[C@@H](C)C(=O)N[C@@H](CCC(N)=O)C(=O)N[C@@H](CC(=O)O)C(=O)N[C@@](C)(Cc1ccccc1)C(=O)N[C@H](C(=O)N[C@@H](CCC(=O)O)C(=O)NC(C)(C)C(=O)N[C@@H](CC(C)C)C(=O)N[C@@H](C)C(=O)N[C@@H](CC(N)=O)C(=O)N[C@H](C(N)=O)[C@@H](C)O)C(C)C)C(C)(C)CCNC(=N)N)C(c1ccccc1)c1ccccc1)C(=O)O)C(=O)O [Peptide 393, HSQGS(αMePhe)TSDK((PEG)2-(PEG)2-γE-yE-Stearoyl)10SK(Dip)LDS(β-dimethylArg)AAQD(αMePhe)VE(Aib)LANT-amide]
% Relative Potency Ratio: 9.3

CC(C)C[C@H](NC(=O)[C@H](Cc1c[nH]c2ccccc12)NC(=O)[C@H](CCCNC(=N)N)NC(=O)[C@@H](NC(=O)[C@H](Cc1ccccc1)NC(=O)[C@H](CC(=O)O)NC(=O)[C@H](CCC(N)=O)NC(=O)[C@H](C)NC(=O)[C@H](CCCNC(=N)N)NC(=O)[C@H](CCCCNC(=O)COCCOCCNC(=O)COCCOCCNC(=O)CC[C@H](NC(=O)CCCCCCCCCCCCCCCCCCC(=O)O)C(=O)O)NC(=O)[C@@H](NC(=O)[C@H](CC(=O)O)NC(=O)[C@H](CC(C)C)NC(=O)[C@](C)(Cc1ccccc1)NC(=O)[C@H](CCCCN)NC(=O)[C@H](CO)NC(=O)[C@@H](NC(=O)[C@H](CC(=O)O)NC(=O)[C@H](CO)NC(=O)[C@@H](NC(=O)[C@H](Cc1ccccc1)NC(=O)[C@@H](NC(=O)CNC(=O)[C@H](CCC(N)=O)NC(=O)C(C)(C)NC(=O)[C@@H](N)Cc1c[nH]cn1)[C@@H](C)O)[C@@H](C)O)C(C)C)[C@@H](C)O)C(C)C)C(=O)N[C@@H](CCC(=O)O)C(=O)N[C@@H](C)C(=O)NC(C)(C)C(=O)NCC(=O)O [Peptide 407]
% Relative Potency Ratio (Table 6): 4.4

CC(C)C[C@H](NC(=O)[C@H](Cc1c[nH]c2ccccc12)NC(=O)[C@H](CCC(N)=O)NC(=O)[C@@H](NC(=O)[C@H](Cc1ccccc1)NC(=O)[C@H](CC(=O)O)NC(=O)[C@H](CCCNC(=N)N)NC(=O)[C@H](C)NC(=O)[C@H](CCCNC(=N)N)NC(=O)[C@H](CCCCNC(=O)COCCOCCNC(=O)COCCOCCNC(=O)CC[C@H](NC(=O)CCCCCCCCCCCCCCCCCCC(=O)O)C(=O)O)NC(=O)[C@@H](NC(=O)[C@H](CCC(=O)O)NC(=O)[C@H](CC(C)C)NC(=O)[C@](C)(Cc1ccccc1)NC(=O)[C@H](CCCCN)NC(=O)[C@H](CO)NC(=O)[C@@H](NC(=O)[C@H](CC(=O)O)NC(=O)[C@H](CO)NC(=O)[C@@H](NC(=O)[C@H](Cc1ccccc1)NC(=O)[C@@H](NC(=O)CNC(=O)[C@H](CCC(N)=O)NC(=O)C(C)(C)NC(=O)[C@@H](N)Cc1c[nH]cn1)[C@@H](C)O)[C@@H](C)O)C(C)C)[C@@H](C)O)C(C)C)C(=O)N[C@@H](CC(C)C)C(=O)N[C@@H](CCC(=O)O)C(=O)NC(C)(C)C(=O)NCC(=O)O [Peptide 444]
% Relative Potency Ratio (Table 6): 14.1

CC(C)C[C@H](NC(=O)[C@H](CC(C)C)NC(=O)[C@H](Cc1c[nH]c2ccccc12)NC(=O)[C@H](CCCNC(=N)N)NC(=O)[C@@H](NC(=O)[C@H](Cc1ccccc1)NC(=O)[C@H](CC(=O)O)NC(=O)[C@H](CCC(N)=O)NC(=O)[C@H](C)NC(=O)[C@H](CCCNC(=N)N)NC(=O)[C@H](CCCCNC(=O)COCCOCCNC(=O)COCCOCCNC(=O)CC[C@H](NC(=O)CCCCCCCCCCCCCCCCC(=O)O)C(=O)O)NC(=O)[C@H](CCCNC(=N)N)NC(=O)[C@H](CC(=O)O)NC(=O)[C@H](CC(C)C)NC(=O)[C@](C)(Cc1ccccc1)NC(=O)[C@H](CCCCN)NC(=O)[C@H](CO)NC(=O)[C@@H](NC(=O)[C@H](CC(=O)O)NC(=O)[C@H](CO)NC(=O)[C@@H](NC(=O)[C@H](Cc1ccccc1)NC(=O)[C@@H](NC(=O)CNC(=O)[C@H](CCC(N)=O)NC(=O)C(C)(C)NC(=O)[C@@H](N)Cc1c[nH]cn1)[C@@H](C)O)[C@@H](C)O)C(C)C)C(C)C)C(=O)N[C@@H](C)C(=O)N[C@@H](CCC(=O)O)C(N)=O [Peptide 461] (H-H[Aib]QGTFTSDVSK[αMeF]LDRK([AEEA-AEEA-γGlu-C18 diacid])RAQDFVRWLLAE-NH2; N-terminus assumed)
pEC50 (Table 6, peptides modified at position 17, cAMP in CHO hGLP-1R cells, geometric mean, read-out: hGLP-1R EC50): 9.78
